In PMC7873226, “Molecular mechanism and structural basis of small-molecule modulation of the gating of acid-sensing ion channel 1” (Communications Biology, 2021):

Molecular target: T1, rat ASIC1a (Rattus norvegicus, UniProt P55926)
T1 construct: expressed in transfected cells
T1 sequence (P55926 1-526): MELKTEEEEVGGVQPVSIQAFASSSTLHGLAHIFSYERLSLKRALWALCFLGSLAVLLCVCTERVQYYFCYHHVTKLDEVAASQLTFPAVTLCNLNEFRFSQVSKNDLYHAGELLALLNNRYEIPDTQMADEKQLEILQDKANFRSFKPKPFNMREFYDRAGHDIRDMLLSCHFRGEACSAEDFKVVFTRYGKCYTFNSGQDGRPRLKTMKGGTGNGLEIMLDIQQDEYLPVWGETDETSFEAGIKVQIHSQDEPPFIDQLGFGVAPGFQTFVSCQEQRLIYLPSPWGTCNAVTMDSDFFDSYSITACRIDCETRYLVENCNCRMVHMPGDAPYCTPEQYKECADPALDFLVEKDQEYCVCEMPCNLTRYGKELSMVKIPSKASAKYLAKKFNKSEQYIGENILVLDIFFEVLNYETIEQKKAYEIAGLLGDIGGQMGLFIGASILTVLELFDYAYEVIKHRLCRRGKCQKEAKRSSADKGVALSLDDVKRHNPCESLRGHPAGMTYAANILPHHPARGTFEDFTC
Test: Kinetics of onset of and recovery (wash) from compound inhibition
Assay type: cell-based
Details: holding pH 8.2, pH 6.0 test pulses
Protocol: Chinese Hamster Ovary (CHO) cells stably expressing rat ASIC1a were cultured in Ham’s F12, supplemented with 10% FBS, 1% penicillin–streptomycin and 500 µg/mL G418 and incubated at 37 °C with 5% CO2. Transient transfections of rASIC1a and cASIC1 wild-type or mutant channels in CHO cells were performed with Lipofectamine 3000 (Thermo Fisher Scientific) according to the manufacturer’s recommendations. The green fluorescent protein (GFP) cDNA (at 1/10 the amount of channel cDNA) was co-transfected with channel cDNA to aid the identification of transfected cells under the microscope in patch clamp experiments. All cDNAs were sequence verified.
Cells were freshly dissociated with CellStripper (Corning) and dispersed in a chamber on the stage of an inverted microscope. Upon formation of the whole-cell conformation, the cell was lifted from the bottom of the chamber and placed at the tip of a tubing perfusing an extracellular solution containing (in mM): 149 NaCl, 2 CaCl2, 4 KCl, 1 MgCl2, 5 glucose, 10 HEPES, pH 7.4, 310 mOsm/L. Extracellular solutions at more basic or acidic pHs were made by titrating the above pH 7.4 solution with NaOH or HCl (5 mM MES was added to solutions at pH 6.0 and lower). Pipette electrodes were filled with an intracellular solution containing (in mM): 135 KCl, 4 MgATP, 0.3 Na2GTP, 10 EGTA, and 20 HEPES, pH 7.2, 290 mOsm/L.
All recordings were performed at room temperature using an Axopatch 200B amplifier and pClamp 11 software (Molecular Devices). Currents were measured by whole-cell patch clamp, digitized at 10 kHz and lowpass filtered at 2 kHz. Series resistance was 75% compensated. Responses were elicited by rapid perfusion of acidic solutions using the SF-77B Fast-Step Perfusion device (Warner Instruments) for 40 ms once every 30 s (unless indicated otherwise) and recorded till steady state was reached. The holding potential was 0 mV unless indicated otherwise.
Baseline values (i.e., current amplitudes at the conditioning pH) were subtracted to obtain responses evoked by the test pH. Responses were normalized for each cell before averaging (see figure legends for more detail on normalization for each type of experiment). Concentration–response data were fitted to a logistic function of the form: R = (A1–A2)/(1 + (C/C0)^h)+A2, where R is the normalized response, C is either pH or compound concentration, C0 is the pH/concentration at which half-maximal response occurs (pH50 or IC50), h is the Hill coefficient, and A1 and A2 are constants. Kinetic parameters were obtained by fitting the data with either a single or double exponential function. Fitted data are shown as solid, dashed, or dotted curves.

## COc1ccc(Oc2ccc(-c3nc4cc(C(=N)N)ccc4[nH]3)cc2)cc1OC [JNJ-799760]
100 nM
  time constant of current inhibition: 1.6 ± 0.1 s
1 µM
  time constant of current inhibition: 0.2248 ± 0.0189 s
